Measured values from US20090247533A1, “Ecteinascidins” (The Board of Trustees of the University of Illinois, priority 1994, published 2009).
Values after ≈ are worked out from the molar mass of the structure shown.

What was measured:
RNA polymerase = assay: Enzyme inhibition: RNA polymerase inhibition; type: biochemical
DNA synthesis = assay: Antimetabolism: DNA synthesis inhibition; type: cell-based
[1] = system: P388 = murine lymphoma cells; assay: Cytotoxicity against P388 cells; type: cell-based
[2] = system: CV-1 = monkey kidney cells; assay: Cytotoxicity against CV-1 cells; type: cell-based
Bacillus subtilis = assay: Antimicrobial activity against Bacillus subtilis (MIC, disc); type: cell-based; details: for B.s. MIC: Bacillus subtilis
MEL28 = human melanoma = assay: Cytotoxicity against MEL28 cells; type: cell-based
protein synthesis = assay: Antimetabolism: protein synthesis inhibition; type: cell-based
RNA synthesis = assay: Antimetabolism: RNA synthesis inhibition; type: cell-based
[3] = system: HT29 = human colon carcinoma; assay: Cytotoxicity against HT29 cells; type: cell-based
[4] = system: A549 = human lung carcinoma; assay: Cytotoxicity against A549 cells; type: cell-based
Stability in solution = type: physicochemical; details: giving reddish color
DNA polymerase = assay: Enzyme inhibition: DNA polymerase inhibition; type: biochemical
[5] = system: P388 murine leukemia, B16 melanoma, Lewis lung carcinoma, and several human tumor xenograft models in mice; details: human tumor xenografts in mice; cited from earlier work
[6] = system: L1210 = murine lymphoma cells; assay: Cytotoxicity against L1210 cells; type: cell-based
B16 melanoma = details: evaluated by the NCI; cited from earlier work

COc1cc2c(cc1OC(C)=O)CCN[C@]21CS[C@@H]2c3c(OC(C)=O)c(C)c4c(c3[C@H](COC1=O)N1[C@@H]2[C@H]2c3c(O)c(OC)c(C)c(Br)c3C[C@@H]([C@@H]1O)N2C)OCO4 [6′-Ac, 15-Br]
RNAp (RNA polymerase inhibition) IC50 (RNA polymerase): 0.42 µg/mL
DNA (DNA synthesis inhibition) IC50 (DNA synthesis): 0.5 µg/mL

COc1c(C)cc2c(c1O)C1NC(C2)C(O)N2C3COC(=O)C(N)CSC(c4c(OC(C)=O)c(C)c(OC)c(O)c43)C12 (stereo not shown) [Et 583, Ecteinascidin 583]
IC50 ([1]; Mus musculus): 0.01 µg/mL (≈ 0.0166 µM)
IC50 ([2]; Primates): 0.025 µg/mL (≈ 0.0416 µM)
RNAp (RNA polymerase inhibition) IC50 (RNA polymerase): 0.5 µg/mL
B.s. MIC (Bacillus subtilis): 0.74 μg/disc
IC50 (MEL28 = human melanoma; SK-MEL-28): 5 ng/mL (≈ 0.00831 µM)
IC50 (DNA synthesis): 1 µg/mL (≈ 1.66 µM)
IC50 (protein synthesis; read-out: Prot. (protein synthesis inhibition) IC50): 1 µg/mL (≈ 1.66 µM)
IC50 (RNA synthesis): 0.4 µg/mL (≈ 0.665 µM)
IC50 ([3]; HT-29): 0.01 µg/mL (≈ 0.0166 µM)
IC50 [4]: 0.01 µg/mL (≈ 0.0166 µM)

COc1c(C)cc2c(c1O)C1C3[C@@H]4SCC(=O)C(=O)OC[C@@H](c5c6c(c(C)c(OC(C)=O)c54)OCO6)N3[C@@H](O)[C@H](C2)N1C (stereo partly shown) [Et 594, Ecteinascidin 594]
P388 IC50 [1]: 10 ng/mL
CV-1 IC50 [2]: 25 ng/mL
RNAp (RNA polymerase inhibition) IC50 (RNA polymerase): 1.0 µg/mL
B.s. MIC (Bacillus subtilis): 0.37 μg/disc
MEL28 IC50 (MEL28 = human melanoma): 25 ng/mL
DNA (DNA synthesis inhibition) IC50 (DNA synthesis): 0.5 µg/mL
Prot. (protein synthesis inhibition) IC50 (protein synthesis): 0.8 µg/mL
RNA (RNA synthesis inhibition) IC50 (RNA synthesis): 0.5 µg/mL
HT29 IC50 [3]: 25 ng/mL
A549 IC50 [4]: 20 ng/mL

COc1c(C)cc2c(c1O)[C@@H]1[C@@H]3[C@@H]4SC[C@H](N)C(=O)OC[C@@H](c5c(O)c(OC)c(C)c(OC(C)=O)c54)N3[C@@H](O)[C@@H](C2)N1C [Et 597, Ecteinascidin 597]
P388 IC50 [1]: 2.0 ng/mL
CV-1 IC50 [2]: 2.5 ng/mL
stability in solution (Stability in solution): decomposed slowly in solution
RNAp (RNA polymerase inhibition) IC50 (RNA polymerase): 0.25 µg/mL
B.s. MIC (Bacillus subtilis): 0.14 μg/disc
MEL28 IC50 (MEL28 = human melanoma): 2.0 ng/mL
DNA (DNA synthesis inhibition) IC50 (DNA synthesis): 0.08 µg/mL
Prot. (protein synthesis inhibition) IC50 (protein synthesis): 0.7 µg/mL
RNA (RNA synthesis inhibition) IC50 (RNA synthesis): 0.01 µg/mL
HT29 IC50 [3]: 2.0 ng/mL
A549 IC50 [4]: 2.0 ng/mL

COc1c(C)cc2c(c1O)[C@H]1N[C@@H](C2)[C@H](O)N2[C@H]1[C@@H]1SC[C@]3(NCCc4c3[nH]c3ccccc43)C(=O)OC[C@H]2c2c3c(c(C)c(OC(C)=O)c21)OCO3 [Et 722]
P388 IC50 [1]: 1.0 ng/mL
DNAp (DNA polymerase inhibition) IC50 (DNA polymerase): >1 µg/mL
CV-1 IC50 [2]: 5.0 ng/mL
RNAp (RNA polymerase inhibition) IC50 (RNA polymerase): 0.5 µg/mL
B.s. MIC (Bacillus subtilis): 0.70 μg/disc
MEL28 IC50 (MEL28 = human melanoma): 2.0 ng/mL
DNA (DNA synthesis inhibition) IC50 (DNA synthesis): 0.4 µg/mL
Prot. (protein synthesis inhibition) IC50 (protein synthesis): 0.9 µg/mL
RNA (RNA synthesis inhibition) IC50 (RNA synthesis): 0.1 µg/mL
efficacy in vivo [5]: promising efficacy in vivo
HT29 IC50 [3]: 2.0 ng/mL
A549 IC50 [4]: 1.0 ng/mL

COc1cc2c(cc1O)CCN[C@]21CS[C@@H]2c3c(OC(C)=O)c(C)c4c(c3[C@H](COC1=O)N1[C@@H]2[C@@H]2N[C@@H](Cc3cc(C)c(OC)c(O)c32)[C@@H]1O)OCO4 [Et 729]
P388 IC50 [1]: 0.2 ng/mL
DNAp (DNA polymerase inhibition) IC50 (DNA polymerase): 1.5 µg/mL
CV-1 IC50 [2]: 2.5 ng/mL
L1210 IC50 [6]: <1 ng/mL
RNAp (RNA polymerase inhibition) IC50 (RNA polymerase): 0.05 µg/mL
B.s. MIC (Bacillus subtilis): 0.08 μg/disc
MEL28 IC50 (MEL28 = human melanoma): 5.0 ng/mL
DNA (DNA synthesis inhibition) IC50 (DNA synthesis): 0.2 µg/mL
Prot. (protein synthesis inhibition) IC50 (protein synthesis): >1 µg/mL
RNA (RNA synthesis inhibition) IC50 (RNA synthesis): 0.02 µg/mL
efficacy in vivo [5]: promising efficacy in vivo
HT29 IC50 [3]: 0.5 ng/mL
survivors 60 days following infection with B16 melanoma (B16 melanoma): 8 of 10
A549 IC50 [4]: 0.2 ng/mL

COc1cc2c(cc1O)CCNC21CSC2c3c(OC(C)=O)c(C)c4c(c3C(COC1=O)N1CC3Cc5cc(C)c(OC)c(O)c5C(N3)C21)OCO4 (stereo not shown) [Et 731, Ecteinascidin 731]
P388 IC50 [1]: 100 ng/mL
CV-1 IC50 [2]: 200 ng/mL
B.s. MIC (Bacillus subtilis): 6.20 μg/disc
MEL28 IC50 (MEL28 = human melanoma): 200 ng/mL
Prot. (protein synthesis inhibition) IC50 (protein synthesis): >1 µg/mL
HT29 IC50 [3]: 100 ng/mL
A549 IC50 [4]: 100 ng/mL

COc1c(C)cc2c(c1O)[C@@H]1[C@@H]3[C@@H]4SC[C@]5(NCCc6c5[nH]c5ccccc65)C(=O)OC[C@@H](c5c6c(c(C)c(OC(C)=O)c54)OCO6)N3[C@@H](O)[C@H](C2)N1C [Et 736]
P388 IC50 [1]: 0.5 ng/mL
CV-1 IC50 [2]: 2.5 ng/mL
RNAp (RNA polymerase inhibition) IC50 (RNA polymerase): 0.5 µg/mL
B.s. MIC (Bacillus subtilis): 0.38 μg/disc
MEL28 IC50 (MEL28 = human melanoma): 2.5 ng/mL
DNA (DNA synthesis inhibition) IC50 (DNA synthesis): 0.4 µg/mL
Prot. (protein synthesis inhibition) IC50 (protein synthesis): 0.5 µg/mL
RNA (RNA synthesis inhibition) IC50 (RNA synthesis): 0.1 µg/mL
HT29 IC50 [3]: 2.5 ng/mL
A549 IC50 [4]: 1.0 ng/mL

COc1cc2c(cc1O)CCN[C@]21CS[C@@H]2c3c(OC(C)=O)c(C)c4c(c3[C@H](COC1=O)N1[C@@H]2[C@H]2c3c(cc(C)c(OC)c3O)C[C@@H]([C@@H]1O)N2C)OCO4 [Et 743]
P388 IC50 [1]: 0.2 ng/mL
DNAp (DNA polymerase inhibition) IC50 (DNA polymerase): 2 µg/mL
CV-1 IC50 [2]: 1.0 ng/mL
L1210 IC50 [6]: 5 ng/mL
RNAp (RNA polymerase inhibition) IC50 (RNA polymerase): 0.1 µg/mL
B.s. MIC (Bacillus subtilis): 0.02 μg/disc
MEL28 IC50 (MEL28 = human melanoma): 5.0 ng/mL
DNA (DNA synthesis inhibition) IC50 (DNA synthesis): 0.1 µg/mL
Prot. (protein synthesis inhibition) IC50 (protein synthesis): >1 µg/mL
RNA (RNA synthesis inhibition) IC50 (RNA synthesis): 0.03 µg/mL
efficacy in vivo [5]: promising efficacy in vivo
HT29 IC50 [3]: 0.5 ng/mL
A549 IC50 [4]: 0.2 ng/mL

COc1cc2c(cc1O)CCNC21C[S+]([O-])C2c3c(OC(C)=O)c(C)c4c(c3C(COC1=O)N1C(O)C3Cc5cc(C)c(OC)c(O)c5C(N3)C21)OCO4 (stereo not shown) [Et 745B, Ecteinascidin 745B]
P388 IC50 [1]: 5.0 ng/mL
CV-1 IC50 [2]: 25 ng/mL
L1210 IC50 [6]: 25 ng/mL
RNAp (RNA polymerase inhibition) IC50 (RNA polymerase): 3 µg/mL
DNA (DNA synthesis inhibition) IC50 (DNA synthesis): >1 µg/mL
RNA (RNA synthesis inhibition) IC50 (RNA synthesis): 0.5 µg/mL
HT29 IC50 [3]: 10 ng/mL
A549 IC50 [4]: 10 ng/mL

COc1cc2c(cc1O)CCN[C@]21CS[C@@H]2c3c(OC(C)=O)c(C)c4c(c3[C@H](COC1=O)N1C[C@@H]3Cc5cc(C)c(OC)c(O)c5[C@H]([C@H]21)N3C)OCO4 [Et 745]
P388 IC50 [1]: 10 ng/mL
CV-1 IC50 [2]: 50 ng/mL
B.s. MIC (Bacillus subtilis): 6.50 μg/disc
MEL28 IC50 (MEL28 = human melanoma): 50 ng/mL
DNA (DNA synthesis inhibition) IC50 (DNA synthesis): >1 µg/mL
RNA (RNA synthesis inhibition) IC50 (RNA synthesis): 0.3 µg/mL
HT29 IC50 [3]: 25 ng/mL
A549 IC50 [4]: 20 ng/mL

COc1cc2c(cc1O)CCN[C@]21C[S+]([O-])[C@@H]2c3c(OC(C)=O)c(C)c4c(c3[C@H](COC1=O)N1[C@H]2[C@H]2c3c(cc(C)c(OC)c3O)C[C@@H]([C@H]1O)N2C)OCO4 (stereo partly shown) [Et 759B]
P388 IC50 [1]: 5.0 ng/mL
CV-1 IC50 [2]: 25 ng/mL
RNAp (RNA polymerase inhibition) IC50 (RNA polymerase): >1 µg/mL
B.s. MIC (Bacillus subtilis): 3.90 μg/disc
MEL28 IC50 (MEL28 = human melanoma): 10 ng/mL
DNA (DNA synthesis inhibition) IC50 (DNA synthesis): 0.7 µg/mL
Prot. (protein synthesis inhibition) IC50 (protein synthesis): >1 µg/mL
RNA (RNA synthesis inhibition) IC50 (RNA synthesis): 0.5 µg/mL
HT29 IC50 [3]: 5.0 ng/mL
A549 IC50 [4]: 5.0 ng/mL

COc1cc2c(cc1O)CCNC21CSC2c3c(OC(C)=O)c(C)c4c(c3C(COC1=O)N1C(C(C=O)C=O)C3Cc5cc(C)c(OC)c(O)c5C(C21)N3C)OCO4 (stereo not shown) [Et 815, Ecteinascidin 815]
P388 IC50 [1]: 2.5 ng/mL
CV-1 IC50 [2]: 5.0 ng/mL
L1210 IC50 [6]: 25 ng/mL
B.s. MIC (Bacillus subtilis): 0.75 μg/disc
DNA (DNA synthesis inhibition) IC50 (DNA synthesis): >1 µg/mL
RNA (RNA synthesis inhibition) IC50 (RNA synthesis): 0.1 µg/mL
HT29 IC50 [3]: 5.0 ng/mL
A549 IC50 [4]: 5.0 ng/mL

COc1cc2c(cc1O)CCNC21CSC2c3c(OC(C)=O)c(C)c4c(c3C(COC1=O)N1C(O)C3Cc5c(Br)c(C)c(OC)c(O)c5C(C21)N3C=O)OCO4 (stereo not shown) [N—CHO, 15-Br (18)]
P388 IC50 [1]: 50 ng/mL
CV-1 IC50 [2]: 250 ng/mL
HT29 IC50 [3]: 200 ng/mL
A549 IC50 [4]: 200 ng/mL

COc1cc2c(cc1O)CCNC21CSC2c3c(OC(C)=O)c(C)c4c(c3C(COC1=O)N1C(O)C3Cc5cc(C)c(OC)c(O)c5C(C21)N3C=O)OCO4 (stereo not shown) [N—CHO]
RNAp (RNA polymerase inhibition) IC50 (RNA polymerase): 4 µg/mL
B.s. MIC (Bacillus subtilis): 6.60 μg/disc

Ecteinascidin 596 [Et 596]
antimicrobial activity against B. subtilis (MIC) (Bacillus subtilis; crude sample, single major peak by FABMS): 0.3 μg/disc
